Test results: patent US20250129135A1, “Multi-Agonist and Use Thereof” (priority 2021, published 2025)
Starred links: 1 amine or outer side, 2 acyl side, 3 side chain; linkers in the order of their positions; H or OH if unused. Non-standard residues stand in square brackets, D forms with d. Residues, ends and D or L forms follow the SMILES beside them. Groups on a side chain read outwards from the residue. *: point of attachment. C20 diacid = O=C(O)CCCCCCCCCCCCCCCCCCC(=O)*; γGlu = O=C(O)[C@H](CCC(=O)[*:2])N[*:1]; αMeF = C[C@](N)(Cc1ccccc1)C(=O)O; αMeL = CC(C)C[C@](C)(N)C(=O)O; AEEA = NCCOCCOCC(=O)O; Ac3c = NC1(C(=O)O)CC1; Aib = CC(C)(N)C(=O)O

What was measured:
Human GIP R = biological target: T1, Human GIP R (Homo sapiens, UniProt P48546); experiment: cAMP (HTRF) activity in CHO cells stably overexpressing GIP receptor; type: cell-based; conditions: for Human GIP R Rel. A (Relative Activity): EC50 of human GIP / EC50 of compound; for EC50: stable transfected cell cAMP activity, at least 3 independent tests
T1 construct: expressed in transfected cells; host or cells: CHO
T1 sequence (P48546 22-466): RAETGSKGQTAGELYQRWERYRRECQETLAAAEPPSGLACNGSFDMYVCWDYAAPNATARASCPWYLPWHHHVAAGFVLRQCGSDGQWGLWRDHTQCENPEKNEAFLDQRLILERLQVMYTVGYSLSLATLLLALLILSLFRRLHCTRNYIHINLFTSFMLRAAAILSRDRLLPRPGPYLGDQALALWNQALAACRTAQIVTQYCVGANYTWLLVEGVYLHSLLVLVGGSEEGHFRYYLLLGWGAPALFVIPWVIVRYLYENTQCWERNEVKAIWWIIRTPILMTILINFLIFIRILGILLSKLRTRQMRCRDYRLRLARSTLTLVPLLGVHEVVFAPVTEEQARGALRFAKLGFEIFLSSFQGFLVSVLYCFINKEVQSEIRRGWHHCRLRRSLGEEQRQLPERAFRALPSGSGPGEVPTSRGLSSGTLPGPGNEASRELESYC
Method: (§1) By measuring the cAMP signal response levels of the aforementioned cells, the agonistic activity of individual compound towards the corresponding receptor was determined. The intracellular cAMP content was measured using reagent kit available from Cisbio Corp. based on HTRF (homogeneous time-resolved fluorescence) technology.
(§2) The cell fluid was transferred to 10 ml of HBSS for resuspension, and centrifuged at 1000 rpm for 5 minutes at room temperature.
(§3) 10 μL cell suspension was added to each well in the 384 well plate. […] Using the ECHO liquid transfer system, 100 nL of the prepared compound solution was added to the corresponding cell suspensions in the 384 well plate, rotated and shaken at 1000 rpm for 1 minute to mix evenly, and then incubated at room temperature for 60 minutes. 10 μL of detection reagent was added to each well after drug incubation was completed, and incubation was performed in the kit at room temperature for 60 minutes. […] GraphPad Prism 5 plotting software was used to create compound concentration response curves and EC50 (nM) values was calculated.

Human GCG R = biological target: T2, Human GCG R (Homo sapiens, UniProt P47871); experiment: cAMP (HTRF) activity in HEK-293 cells stably overexpressing human GCG receptor; type: cell-based; conditions: EC50 of human GCG / EC50 of compound
T2 construct: expressed in transfected cells; host or cells: HEK-293
Method: as §1, §2, §3

RIN-m5F cells = type: cell-based, rat; conditions: for Rel. A (Relative Activity) on RIN-m5F: relative to GLP-1(7-37)
Method: This experiment measured the cAMP level produced by the compound on RIN-mF cells.
Frozen […] cells were placed in a 37° C. constant temperature water bath for rapid thawing and recovery. The cell solution was transferred to 10 ml of HBSS for resuspension, and centrifuged at 1000 rpm for 5 minutes at room temperature.
10 μL cell suspension was added to each well in the 384 well plate. […] Using the ECHO liquid transfer system, 100 nL of the prepared compound solution was added to the corresponding cell suspensions in the 384 well plate, rotated and shaken at 1000 rpm for 1 minute to mix evenly, and then incubated at room temperature for 60 minutes. 10 μL of detection reagent was added to each wells after drug incubation was completed, and incubation was performed for 60 minutes.

3T3-L1 adipocytes = conditions: for Rel. A (Relative Activity) on 3T3-L1 adipocyte: relative to GIP
Method: Mouse 3T3-L1 precursor adipocytes can be induced to differentiate into mature adipocytes. […] After the cells became full and contacted with each other, DMEM differentiation medium containing 20% FBS, 0.5 mM IBMX, 0.4 ug/mL dexamethasone, and 5 ug/mL insulin was used to induce differentiation of 3T3-L1 adipocyte. After 5 days of induction and cultivation, DMEM medium containing […], 4 ug/ml insulin, and 10 uM rosiglitazone was used to continue induction and cultivation for 3 days. Then, DMEM medium containing 10% FBS was used to continue cultivation for 2-3 days to induce mature 3T3-L1 adipocytes.
The cAMP level produced by the compound on 3T3-L1 adipocytes was determined in this experiment. The tested compound solution was diluted step by step according to a concentration gradient of 3 times, to obtain a total of 10 series of concentration solutions. The solutions were added to induced mature 3T3-L1 adipocytes and incubated at room temperature for 60 minutes. 10 μL detection reagent in the kit was added to each well after drug incubation, and incubated at room temperature for another 60 minutes. […] GraphPad Prism 5 plotting software was used to create compound concentration-effect curves and calculation was performed.

[1] = system: human primary liver cells; type: cell-based; conditions: for Rel. A (Relative Activity) on human primary liver cells: relative to GCG
Method: The cAMP levels produced by compounds on human primary liver cells were determined in this experiment. Human primary liver cells were purchased from Lonza (cell product number HUCPG).
Frozen human primary liver cells were placed in a 37° C. constant temperature water bath for rapid thawing and recovery. The cell solution was transferred to 10 ml of HBSS for resuspension, and centrifuged at 1000 rpm for 5 minutes at room temperature.
10 μL cell suspension was added to each well in the 384 well plate. […] Using the ECHO liquid transfer system, 100 nL of the prepared compound solution was added to the corresponding cell suspensions in the 384 well plate, rotated and shaken at 1000 rpm for 1 minute to mix evenly, and then incubated at room temperature for 60 minutes. 10 μL of detection reagent was added to each well after drug incubation was completed, and incubation was performed for 60 minutes.

Human GLP-1R = Human GLP-1R (Homo sapiens, UniProt P43220); experiment: cAMP (HTRF) activity in HEK-293 cells stably overexpressing human GLP-1 receptor; type: cell-based; design: expressed in transfected cells; host or cells: HEK-293; conditions: for Human GLP-1R Rel. A (Relative Activity): EC50 of human GLP-1 (7-37) / EC50 of compound; for EC50: stable transfected cell cAMP activity, at least 3 independent tests
Method: as §1, §2, §3

Human GLP-1R, sequence (P43220 24-463): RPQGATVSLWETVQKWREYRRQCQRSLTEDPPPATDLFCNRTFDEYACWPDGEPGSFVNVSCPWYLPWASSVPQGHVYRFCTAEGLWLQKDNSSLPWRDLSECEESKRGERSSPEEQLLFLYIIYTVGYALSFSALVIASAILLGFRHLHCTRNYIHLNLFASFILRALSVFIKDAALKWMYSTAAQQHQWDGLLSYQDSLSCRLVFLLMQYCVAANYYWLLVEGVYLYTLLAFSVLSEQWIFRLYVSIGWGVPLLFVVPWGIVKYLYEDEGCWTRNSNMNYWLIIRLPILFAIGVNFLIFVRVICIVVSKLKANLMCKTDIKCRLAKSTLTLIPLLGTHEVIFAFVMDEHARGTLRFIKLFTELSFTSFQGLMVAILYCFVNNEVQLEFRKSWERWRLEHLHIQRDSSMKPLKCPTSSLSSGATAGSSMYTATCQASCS
T2 sequence (P47871 26-477): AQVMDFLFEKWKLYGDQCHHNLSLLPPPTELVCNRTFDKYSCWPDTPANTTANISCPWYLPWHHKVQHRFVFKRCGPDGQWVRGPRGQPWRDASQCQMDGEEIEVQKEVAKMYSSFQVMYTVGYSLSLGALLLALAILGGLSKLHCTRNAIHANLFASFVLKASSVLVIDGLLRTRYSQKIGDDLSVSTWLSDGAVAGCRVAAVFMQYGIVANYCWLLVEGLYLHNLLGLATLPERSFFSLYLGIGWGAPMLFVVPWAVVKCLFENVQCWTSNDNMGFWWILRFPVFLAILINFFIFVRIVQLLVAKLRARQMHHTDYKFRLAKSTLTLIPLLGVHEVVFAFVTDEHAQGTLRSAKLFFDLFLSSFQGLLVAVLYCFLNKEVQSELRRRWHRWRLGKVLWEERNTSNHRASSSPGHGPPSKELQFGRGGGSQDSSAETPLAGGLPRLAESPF

CC[C@H](C)[C@H](NC(=O)[C@H](Cc1ccccc1)NC(=O)[C@H](C)NC(=O)C(C)(C)NC(=O)[C@H](CCC(N)=O)NC(=O)[C@H](C)NC(=O)[C@H](CCCCNC(=O)COCCOCCNC(=O)COCCOCCNC(=O)CC[C@H](NC(=O)CCCCCCCCCCCCCCCCCCC(=O)O)C(=O)O)NC(=O)[C@H](CCCCN)NC(=O)[C@H](CC(=O)O)NC(=O)[C@H](CC(C)C)NC(=O)[C@](C)(CC(C)C)NC(=O)[C@@H](NC(=O)[C@H](CO)NC(=O)[C@H](Cc1ccc(O)cc1)NC(=O)[C@H](CC(=O)O)NC(=O)[C@H](CO)NC(=O)[C@@H](NC(=O)[C@](C)(Cc1ccccc1)NC(=O)[C@@H](NC(=O)CNC(=O)[C@H](CCC(N)=O)NC(=O)C(C)(C)NC(=O)[C@@H](N)Cc1ccc(O)cc1)[C@@H](C)O)[C@@H](C)O)[C@@H](C)CC)C(=O)N[C@@H](CCC(=O)O)C(=O)N[C@@H](Cc1ccccc1)C(=O)N[C@@H](CC(C)C)C(=O)N[C@@H](CC(C)C)C(=O)N[C@@H](CCC(=O)O)C(=O)N[C@@H](CO)C(=O)NC(C)(C)C(=O)N1CCC[C@H]1C(=O)N[C@@H](CO)C(=O)N[C@@H](CO)C(=O)NCC(=O)N[C@@H](C)C(=O)N1CCC[C@H]1C(=O)N1CCC[C@H]1C(=O)NC1(C(=O)N[C@@H](CO)C(N)=O)CC1 [Compound 28] (H-Y[Aib]QGT[αMeF]TSDYSI[αMeL]LDKK([AEEA-AEEA-γGlu-C20 diacid])AQ[Aib]AFIEFLLES[Aib]PSSGAPP[Ac3c]S-NH2)
Human GIP R Rel. A (Relative Activity) (Human GIP R): 1645.45% | EC50 (Human GIP R): 0.011 nM | Human GCG R Rel. A (Relative Activity) (Human GCG R): 37.01% | EC50 (RIN-m5F cells): 0.784 nM | Rel. A (Relative Activity) on RIN-m5F (RIN-m5F cells): 131.63% | EC50 (3T3-L1 adipocytes): 9.85 nM | Rel. A (Relative Activity) on 3T3-L1 adipocyte (3T3-L1 adipocytes): 38.61% | EC50 [1]: 5.21 nM | Rel. A (Relative Activity) on human primary liver cells [1]: 74.74% | Human GLP-1R Rel. A (Relative Activity) (Human GLP-1R): 183.33%

CC[C@H](C)[C@H](NC(=O)[C@H](Cc1ccccc1)NC(=O)[C@H](C)NC(=O)C(C)(C)NC(=O)[C@H](CCC(N)=O)NC(=O)[C@H](C)NC(=O)[C@H](CCCCNC(=O)COCCOCCNC(=O)COCCOCCNC(=O)CC[C@H](NC(=O)CCCCCCCCCCCCCCCCCCC(=O)O)C(=O)O)NC(=O)[C@H](CCCCN)NC(=O)[C@H](CC(=O)O)NC(=O)[C@H](CC(C)C)NC(=O)[C@H](Cc1ccccc1)NC(=O)[C@@H](NC(=O)[C@H](CO)NC(=O)[C@H](Cc1ccc(O)cc1)NC(=O)[C@H](CC(=O)O)NC(=O)[C@H](CO)NC(=O)[C@@H](NC(=O)[C@](C)(Cc1ccccc1)NC(=O)[C@@H](NC(=O)CNC(=O)[C@H](CCC(N)=O)NC(=O)C(C)(C)NC(=O)[C@@H](N)Cc1ccc(O)cc1)[C@@H](C)O)[C@@H](C)O)[C@@H](C)CC)C(=O)N[C@@H](CCC(=O)O)C(=O)N[C@@H](Cc1ccc(O)cc1)C(=O)N[C@@H](CC(C)C)C(=O)N[C@@H](CC(C)C)C(=O)N[C@@H](CCC(=O)O)C(=O)N[C@@H](CO)C(=O)NC(C)(C)C(=O)N1CCC[C@H]1C(=O)N[C@@H](CO)C(=O)N[C@@H](CO)C(=O)NCC(=O)N[C@@H](C)C(=O)N1CCC[C@H]1C(=O)N1CCC[C@H]1C(=O)NC1(C(=O)N[C@@H](CO)C(N)=O)CC1 [Compound 29] (H-Y[Aib]QGT[αMeF]TSDYSIFLDKK([AEEA-AEEA-γGlu-C20 diacid])AQ[Aib]AFIEYLLES[Aib]PSSGAPP[Ac3c]S-NH2; N-terminus assumed)
Human GIP R Rel. A (Relative Activity) (Human GIP R): 58.58% | Human GCG R Rel. A (Relative Activity) (Human GCG R): 82.61% | EC50 (RIN-m5F cells): 0.633 nM | Rel. A (Relative Activity) on RIN-m5F (RIN-m5F cells): 163.03% | EC50 (3T3-L1 adipocytes): 20.7 nM | Rel. A (Relative Activity) on 3T3-L1 adipocyte (3T3-L1 adipocytes): 18.41% | EC50 [1]: 2.93 nM | Rel. A (Relative Activity) on human primary liver cells [1]: 132.89% | Human GLP-1R Rel. A (Relative Activity) (Human GLP-1R): 275.00% | EC50 (Human GLP-1R): 0.016 nM

CC[C@H](C)[C@H](NC(=O)[C@H](Cc1ccccc1)NC(=O)[C@H](C)NC(=O)C(C)(C)NC(=O)[C@H](CCC(N)=O)NC(=O)[C@H](C)NC(=O)[C@H](CCCCNC(=O)COCCOCCNC(=O)COCCOCCNC(=O)CC[C@H](NC(=O)CCCCCCCCCCCCCCCCCCC(=O)O)C(=O)O)NC(=O)[C@H](CCCCN)NC(=O)[C@H](CC(=O)O)NC(=O)[C@H](CC(C)C)NC(=O)[C@](C)(CC(C)C)NC(=O)[C@@H](NC(=O)[C@H](CO)NC(=O)[C@H](Cc1ccc(O)cc1)NC(=O)[C@H](CC(=O)O)NC(=O)[C@H](CO)NC(=O)[C@@H](NC(=O)[C@](C)(Cc1ccccc1)NC(=O)[C@@H](NC(=O)CNC(=O)[C@H](CCC(N)=O)NC(=O)C(C)(C)NC(=O)[C@@H](N)Cc1ccc(O)cc1)[C@@H](C)O)[C@@H](C)O)[C@@H](C)CC)C(=O)N[C@@H](CCC(=O)O)C(=O)N[C@@H](Cc1ccccc1)C(=O)N[C@@H](CC(C)C)C(=O)N[C@@H](CC(C)C)C(=O)N[C@@H](CCC(=O)O)C(=O)N[C@H](C(=O)NC(C)(C)C(=O)N1CCC[C@H]1C(=O)N[C@@H](CO)C(=O)N[C@@H](CO)C(=O)NCC(=O)N[C@@H](C)C(=O)N1CCC[C@H]1C(=O)N1CCC[C@H]1C(=O)NC1(C(=O)N[C@@H](CO)C(N)=O)CC1)[C@@H](C)O [Compound 30] (H-Y[Aib]QGT[αMeF]TSDYSI[αMeL]LDKK([AEEA-AEEA-γGlu-C20 diacid])AQ[Aib]AFIEFLLET[Aib]PSSGAPP[Ac3c]S-NH2; N-terminus assumed)
Human GIP R Rel. A (Relative Activity) (Human GIP R): 1206.67% | EC50 (Human GIP R): 0.015 nM | Human GCG R Rel. A (Relative Activity) (Human GCG R): 32.95% | EC50 (RIN-m5F cells): 0.878 nM | Rel. A (Relative Activity) on RIN-m5F (RIN-m5F cells): 117.54% | EC50 (3T3-L1 adipocytes): 7.08 nM | Rel. A (Relative Activity) on 3T3-L1 adipocyte (3T3-L1 adipocytes): 53.67% | EC50 [1]: 7.83 nM | Rel. A (Relative Activity) on human primary liver cells [1]: 49.73% | Human GLP-1R Rel. A (Relative Activity) (Human GLP-1R): 220.00% | EC50 (Human GLP-1R): 0.02 nM
